In patent US8729056B2, “Preventive and/or therapeutic agent of hand-foot syndrome” (Ono Pharmaceutical Co., Ltd., priority 2010, dated 2014):

Tests used:
[1] = WO1999/58478; cited from earlier work
[2] = test system: Hand-Foot Syndrome caused by sorafenib tosilate administration; experiment: Cases 3-6: effect of anticholinergic drugs on Hand-Foot Syndrome caused by sorafenib tosilate in kidney cancer patients; format: in vivo, human
Description: (§1) In the present invention, the preventive and/or treatment effect of the anticholinergic drug against Hand-Foot Syndrome can be evaluated, for example, by the criteria of Hand-Foot Syndrome in Table 1, Table 2, and Table 3 as shown below. Table 1 is the criteria proposed by Blum, and appeared on page 485-493 in volume 17 of Journal Clinical Oncology published in 1999. Grade 0 is not referred to in this table, but it is understood as grade 0 if no symptom is observed. Table 2 is the National Cancer Institute-Common Toxicity Criteria Version 2.0 (NCI-CTC v2.0), and Table 3 is the National Cancer Institute-Common Terminology Criteria for Adverse Events Version 3.0 (NCI-CTCAE v3.0). Grade 0 is also not referred to in Table 3, but it is understood as grade 0 if no symptom is observed.
We examined the effect of imidafenacin in a patient with kidney cancer who developed Hand-Foot Syndrome caused by sorafenib tosilate administration (sorafenib 800 mg/day).
We examined the effect of imidafenacin in a patient with kidney cancer who developed Hand-Foot Syndrome caused by sorafenib tosilate administration.
From this point, Imidafenacin 0.1 mg was orally administered to the patient twice a day in addition to the urea ointment.
We examined the effect of solifenacin succinate in a patient with kidney cancer who developed Hand-Foot Syndrome caused by sorafenib tosilate administration (sorafenib 800 mg/day).
We examined the effect of tolterodine tartrate in a patient with kidney cancer who developed Hand-Foot Syndrome caused by sorafenib tosilate administration.

[3] = sweat from patients with Hand-Foot Syndrome administered the drug; cited from earlier work
[4] = compared with tolterodine; Pharmacology and Toxicology Vol. 81, 1997; cited from earlier work
Hand-Foot Syndrome = settings: patients with highest Hand-Foot Syndrome grade of 3; on average; Phase 2 clinical study in Japan; cited from earlier work
[5] = test system: Hand-Foot Syndrome caused by sunitinib malate administration; experiment: Case 2: effect of imidafenacin on Hand-Foot Syndrome caused by sunitinib malate in a kidney cancer patient; format: in vivo, human; settings: imidafenacin combined with urea ointment, heparinoid ointment and clobetasol propionate ointment, after eight days of such treatment
Description: as §1

SMILES: CC(C)C(=O)Oc1ccc(CO)cc1[C@H](CCN(C(C)C)C(C)C)c1ccccc1 [Fesoterodine, 2-[(1R)-3-(dipropan-2-ylamino)-1-phenylpropyl]-4-(hydroxymethyl)phenyl 2-methylpropanoate]
- metabolism after oral administration [1]: rapidly is metabolized to the 5-hydroxymethyl derivative

SMILES: Cc1ncc(CO)c(CO)c1O.Cl [pyridoxine hydrochloride]
- change of Hand-Foot Syndrome ([2]; case 6, grade 3, urea ointment in addition to pyridoxine hydrochloride, sorafenib 800 mg/day, without tolterodine tartrate): no improvements

SMILES: O=C(O[C@H]1CN2CCC1CC2)N1CCc2ccccc2[C@@H]1c1ccccc1 [solifenacin succinate, (3R)-1-Azabicyclo[2.2.2]oct-3-yl(1S)-1-phenyl-3,4-dihydroisoquinoline-2(1H)-carboxylate]
- recurrence of Hand-Foot Syndrome ([2]; case 5, continuous administration of solifenacin succinate after full recovery): prevented
- recovery from Hand-Foot Syndrome ([2]; case 5, solifenacin succinate 5 mg orally once a day, started at grade 2, 28 days after beginning): full recovery

SMILES: COc1cccc2c1C(=O)c1c(O)c3c(c(O)c1C2=O)C[C@@](O)(C(=O)CO)C[C@@H]3O[C@H]1C[C@H](N)[C@H](O)[C@H](C)O1 [doxorubicin]
- drug substance in sweat [3]: detected

SMILES: Cc1nc(-c2ccccc2)nc(SCc2ccc(Cl)cc2)c1CO [5-hydroxymethyl derivative]
- anticholinergic activity [4]: equivalent to tolterodine

SMILES: CCCCCOC(=O)Nc1nc(=O)n([C@@H]2O[C@H](C)[C@@H](O)[C@H]2O)cc1F [capecitabine]
- period for recovery of Hand-Foot Syndrome after interruption (Hand-Foot Syndrome): about two to three

SMILES: Cc1nccn1CCC(C(N)=O)(c1ccccc1)c1ccccc1 [imidafenacin, 4-(2-Methyl-1H-imidazole-1-yl)-2,2-diphenylbutanamide]
- recurrence of Hand-Foot Syndrome ([2]; case 3, after full recovery, continuous administration of imidafenacin and the moisturizing agent): prevented
- recovery from Hand-Foot Syndrome ([2]; case 3, imidafenacin continued in combination with heparinoid cream, after 22 days): full recovery
- recovery from Hand-Foot Syndrome [5]: full recovery

SMILES: CNC(=O)c1cc(Oc2ccc(NC(=O)Nc3ccc(Cl)c(C(F)(F)F)c3)cc2)ccn1 [sorafenib tosilate]
- drug substance in sweat [3]: not detected
